The results in this text go back to ChEMBL document CHEMBL5647692, “The novel dual PI3K/mTOR inhibitor NVP-BGT226 displays cytotoxic activity in both normoxic and hypoxic hepatocarcinoma cells” (Oncotarget, 2015).

Experiment [1] deals with Mahlavu. As to the kind of experiment: Induction of cell cycle arrest in human Mahlavu cells assessed as decrease in accumulation of cells in S phase incubated at 0.01 to 0.1 uM for 24 hrs by propidium iodide staining based muse cell analysis. The format is functional. Conditions: dose 0.01-0.1 µM.
For experiment [2], the system named is Mahlavu. In words: Induction of apoptosis in human Mahlavu cells assessed as cleaved PARP level at 0.5 uM incubated for 24 hrs by Western blotting analysis. In kind it is functional, cell-based. A general note: A western blot detects proteins with antibodies after separation by electrophoresis.
Experiment [3] has as its system Mahlavu. In words: Induction of apoptosis in human Mahlavu cells assessed as cleaved Caspase 7 level at 0.5 uM incubated for 24 hrs by Western blotting analysis. The format is functional, cell-based.
Experiment [4] relates to SNU-449. As to the kind of experiment: Induction of apoptosis in human SNU-449 cells assessed as viable cells at 1.5 uM incubated for 24 hrs by Annexin-V/7-AAD staining based muse cell analyzer method (reference value: 90.07 %). The format is functional. Conditions: read-out: Activity.
Experiment [5] relates to SNU-449. In words: Induction of apoptosis in human SNU-449 cells assessed as viable cells at IC50 concentration incubated for 24 hrs in presence of Z-VAD-fmk by Annexin-V/7-AAD staining based muse cell analyzer method (reference value: 90.07 %). In kind it is functional.
For experiment [6], the system named is Mahlavu. As to the kind of experiment: Induction of autophagy in human Mahlavu cells assessed as increase in lipidation of LC3A/B II level at 0.5 uM incubated for 24 hrs in presence of chloroquine by Western blot analysis. In kind it is functional, cell-based.
Experiment [7] is described as follows: Inhibition of PI3K/Akt/mTOR signaling pathway in human HepG2 cells assessed as reduction in phosphorylation of Akt incubated for 1 hr under normoxia condition by Western blotting analysis. In kind it is cell-based. To be noted: dose 0.25-1 µM.
A short description of experiment [8]: Inhibition of PI3K/Akt/mTOR signaling pathway in human HepG2 cells assessed as reduction in phosphorylation of mTORC1/2 incubated for 1 hr under normoxia condition by Western blotting analysis. In kind it is cell-based. To be noted: dose 0.25-1 µM.
A short description of experiment [9]: Inhibition of PI3K/Akt/mTOR signaling pathway in human SNU-449 cells assessed as reduction in phosphorylation of GSK3 alpha/beta incubated for 1 hr under normoxia condition by Western blotting analysis. The format is cell-based. To be noted: dose 0.25-1 µM.
Another experiment concerns SNU-475. As to the kind of experiment: Cytotoxicity against human SNU-475 cells assessed as reduction in cell viability incubated for 24 hrs under hypoxia condition by MTT assay. The format is functional, cell-based. (Tetrazolium dyes change colour on reduction, which living cells bring about.)
For the next experiment, the system named is Hep 3B2. As to the kind of experiment: Anti-tumor activity against human Hep3B cells assessed as reduction of VEGF level incubated for 24 hrs under hypoxia condition by Western blot analysis. Conditions: dose 0.01-0.1 µM. In kind it is functional, cell-based.

Activity calls are given as the source filed them. The rule behind the calls is not given here.

In the case of `COc1ccc(-c2ccc3ncc4c(c3c2)n(-c2ccc(N3CCNCC3)c(C(F)(F)F)c2)c(=O)n4C)cn1` [BGT-226 FREE BASE], the result in the experiment with Mahlavu [1], with Mahlavu [2], in the experiment on Mahlavu [3], with Mahlavu [6] and with SNU-475 was Active. For the same compound, the viability at 1.5 µM in the experiment with SNU-449 [4] was 48.6%. In addition, the Activity in the experiment on SNU-449 [5] was 83.56%; in the experiment with Hep 3B2, “Dose-Dependent Effect”. Moreover, the inhibition result in [7], in experiment [8] and in experiment [9] was “Dose-Dependent Effect” throughout.
